{"source": "patent US20230194505A1", "about": "“DETERMINING DRUG EFFECTS USING COMBINATION OF MEASUREMENTS” (Organos, Inc., priority 2020, published 2023)", "key": {"human cardiomyocytes": {"test_system": "human cardiomyocytes", "conditions": "cited from earlier work"}, "zebrafish cardiomyocytes": {"test_system": "zebrafish cardiomyocytes", "conditions": "1 μM, data from Nemtsas et al. 2010; cited from earlier work"}, "hiPSC-CMs": {"test_system": "hiPSC-CMs", "assay": "Conduction velocity computed from measurements of the extracellular potential in a collection of hiPSC-CMs", "assay_type": "cell-based, human", "conditions": "doses 1-10 μM", "description": "From the U data 430, we include the value at each time point and each electrode (see (14)), and the conduction velocity is computed using the time points in which U crosses 0 mV after the peak in different electrodes (see (15) and FIG. 1). Given that U is measured at each electrode, another metric can be the time tcv for the U data 430 to go back to zero. Another metric uses the measurements at each of the time points (shown as separate dots 432; a sum of the square of the differences (or absolute value) between the model output and measured values can be summed.\nwhere cv denotes the conduction velocity (in cm/s) computed from U recorded in the electrodes. More specifically, the conduction velocity is computed as the distance between the center of the two electrodes marked as a and b in FIG. 1 divided by the time between U crosses 0 mV after the peak in these two electrodes (see FIG. 4). The two electrodes used could be any two electrodes in the simulation.\nOne of the advantages of including measurements of the extracellular potential in addition to optical measurements of V and Ca in the inversion procedure is that the extracellular measurements can be used to estimate the conduction velocity of the cell collection. This information could be useful for determining drug effects on the INa current (see FIG. 6). […]"}, "dog cardiomyocytes": {"test_system": "dog cardiomyocytes", "conditions": "50 nM, paced at 1 Hz, data from Jost et al. 2013; cited from earlier work"}, "[1]": {"test_system": "rabbit ventricular myocyte", "conditions": "data from Baczkó et al. 2016, cited from earlier work"}, "[2]": {"conditions": "1 μM, data from Bussek et al. (B)"}, "[3]": {"conditions": "1 μM, data from Jost et al. 2005 (J)"}, "[4]": {"conditions": "50 nM, paced at 1 Hz, data from Jost et al. 2013"}, "[5]": {"conditions": "30 μM, data from Baczkó et al. 2016 (B)"}, "[6]": {"conditions": "30 μM, data from Orvos et al. 2019 (O)"}}, "note": "Where two headings read alike, the source gives them in different places.", "data": [{"smiles": "Cc1cccc(CCN2CCC(C(=O)c3ccc(NS(C)(=O)=O)cc3)CC2)n1", "note": "[E-4031]", "values": [{"measurement": "APD50, Human, drug measured (B) (change vs control)", "setting": "human cardiomyocytes; [2]", "result": "+27.7%"}, {"measurement": "APD90, Human, drug measured (B) (change vs control)", "setting": "human cardiomyocytes; [2]", "result": "+31.2%"}, {"measurement": "APD50, Human drug measured (J) (change vs control)", "setting": "human cardiomyocytes; [3]", "result": "+54.2%"}, {"measurement": "APD90, Human drug measured (J) (change vs control)", "setting": "human cardiomyocytes; [3]", "result": "+65.1%"}, {"measurement": "APD50, Zebrafish drug measured (change vs control)", "setting": "zebrafish cardiomyocytes", "result": "+38.7%"}, {"measurement": "APD90, Zebrafish drug measured (change vs control)", "setting": "zebrafish cardiomyocytes", "result": "+24.1%"}]}, {"smiles": "O=C(NCC1CCCCN1)c1cc(OCC(F)(F)F)ccc1OCC(F)(F)F", "note": "(stereo not drawn) [Flecainide]", "values": [{"measurement": "Effect of increasing drug dose on conduction velocity", "setting": "hiPSC-CMs", "result": "the conduction velocity is decreased"}]}, {"smiles": "CN(CCOc1ccc(NS(C)(=O)=O)cc1)CCc1ccc(NS(C)(=O)=O)cc1", "note": "[dofetilide]", "values": [{"measurement": "APD50, Human, drug measured (change vs control)", "setting": "human cardiomyocytes; [4]", "result": "+33.3%"}, {"measurement": "APD90, Human, drug measured (change vs control)", "setting": "human cardiomyocytes; [4]", "result": "+44.3%"}, {"measurement": "APD50, Dog, drug measured (change vs control)", "setting": "dog cardiomyocytes", "result": "+17.5%"}]}, {"smiles": "CC(C)NCC(O)c1ccc(NS(C)(=O)=O)cc1", "note": "(stereo not drawn) [sotalol]", "values": [{"measurement": "APD50, Rabbit, drug measured (change vs control)", "setting": "[1]; 10 μM", "result": "+21.2%"}, {"measurement": "APD90, Rabbit, drug measured (change vs control)", "setting": "[1]; 10 μM", "result": "+19.6%"}, {"measurement": "APD50, Rabbit, drug measured (change vs control)", "setting": "[1]; 52 μM", "result": "+54.3%"}, {"measurement": "APD90, Rabbit, drug measured (change vs control)", "setting": "[1]; 52 μM", "result": "+54.1%"}, {"measurement": "APD50, Human, drug measured (B) (change vs control)", "setting": "human cardiomyocytes; [5]", "result": "+32.3%"}, {"measurement": "APD90, Human, drug measured (B) (change vs control)", "setting": "human cardiomyocytes; [5]", "result": "+37.5%"}, {"measurement": "APD50, Human, drug measured (O) (change vs control)", "setting": "human cardiomyocytes; [6]", "result": "+20.6%"}, {"measurement": "APD90, Human, drug measured (O) (change vs control)", "setting": "human cardiomyocytes; [6]", "result": "+28.2%"}]}]}
